Microbial reduction data for one compound are collected here from patent publication US9931428B2, “Ophthalmic compositions” (priority 2011, dated 2018).

Assay in all cases: BS EN1276 quantitative suspension test, bactericidal activity, dirty conditions
What all share (type): cell-based
Conditions in all cases: aqueous solution of test article; EN 1276 dirty conditions

Assay [1] relates to Pseudomonas aeruginosa ATCC 15442.
Assay [2] has as its system Staphylococcus aureus NCTC 6571.
Another assay deals with Bacillus subtillus 10262.
A further assay concerns Escherichia coli 11867.

As to `O=C(O)CC(O)(CC(=O)O)C(=O)O` [Citric acid, citric acid], the Microbial reduction in assay [1] is 2.69 × 10^3; in assay [2], 3.02 × 10^2; in the assay with Bacillus subtillus 10262, 2.29 × 10^3; in the assay with Escherichia coli 11867, 6.46 × 10^2.
